Data: patent US8734869B2, “Synergistic pest-control compositions” (TyraTech, Inc., priority 2007, dated 2014)

Columns and labels:
male German Cockroach = assay: Time to kill: five microliters applied to the sternum, time to death recorded (stopped at one hour); format: in vivo; settings: five microliters on sternum
Experimental: Five microliters of the oil or oil blend listed in the table below were applied to the sternum of a male German Cockroach, and the time to death was recorded (time keeping was stopped at one hour). Sample size N=60 for Blend 24 and N=40 for each of the oil components. Components were diluted with acetone. Five microliters of the oil or oil blend listed in the table below were applied to the sternum of a male German Cockroach, and the time to death was recorded (time keeping was stopped at one hour). Sample size N=60 for Blend 41 and each of the oil components. Components were diluted with acetone. Five microliters of the oil or oil blend listed in the table below were applied to the sternum of a male German Cockroach, and the time to death was recorded (time keeping was stopped at one hour). Sample size N=40 for Blend 41 and each of the oil components. Components were diluted with acetone.

[1] = test system: olfactory receptor activation in Drosophila S2 cells; assay: Ca2+ release triggered by olfactory receptor activation in Drosophila S2 cells; format: cell-based
Excerpt: In embodiments of the present invention, a Drosophila Schneider 2 (S2) cell line is stably transfected with a G protein-coupled receptor that is amplified from Drosophila melanogaster head cDNA phage library. The cell line can be used to screen potential active ingredients, as described below.
The potential for insect control activity can be identified by measuring the affinity of the test compositions for the receptor in the cell lines expressing a TyrR, Or83b, and/or Or43a. The potential for insect control activity can also be identified by measuring the change in intracellular cAMP and/or Ca2+ in the cell lines expressing TyrR, Or83b, and/or Or43a following treatment with the test compositions. The gene sequences of the TyrR, the Or 83b receptor and the Or 43a receptor have substantial similarity between various insect species. As such, the Drosophila Schneider cell lines expressing these receptors can be used to screen for compositions having insect control activity in various insect species.
A blend can is prepared and combined with a synthetic pyrethroid such as delatmetrhin. For example, Blend 41 was combined with deltamethrin (DM) and the efficacy of Blend 41 and DM individually were compared to the efficacy of Blend 41 and DM combined. […]

American cockroaches [2] = assay: Treated jar test, knockdown and mortality time: Blend 41, deltamethrin, combination; format: in vivo, American cockroach; settings: average of 3 replicates, 5 roaches each
Experimental: To test efficacy of the composition, a small amount of each test chemical is introduced to a separate jar. About 3 to 5 American cockroaches are introduced to each jar at different time intervals. Mortality and/or immobilization (knockdown, KD) data is recorded and compared. Such data is recorded as seconds (s) following introduction of the insect to the treated jar. The resulting data is contained in the following table.
The data is the average of 3 replicates, 5 roaches in each replicate.

German Cockroach = assay: Bioactivity of Blend 13, deltamethrin and combination; format: in vivo
Drosophila S2 cells = assay: cAMP response in cells treated with Blend 41, imidacloprid and combinations; format: cell-based
Excerpt: FIG. 23 is a bar graph showing percent knockdown in response to treatment of Aedes aegypti with various compositions of including Blend 41 alone, Imidacloprid alone, and combinations of Blend 41 and Imidacloprid. FIG. 24 is a bar graph showing percent knockdown in response to treatment of Aedes aegypti with various compositions of including Blend 41 alone, Imidacloprid alone, and combinations of Blend 41 and Imidacloprid. FIG. 25 is a bar graph showing cAMP signal produced in response to treatment of Drosophila S2 cells treated with various compositions of including Blend 41 alone, Imidacloprid alone, and combinations of Blend 41 and Imidacloprid.

American cockroaches [3] = assay: Residual activity of stabilized compositions, treated jars reused, mortality 24 hours after exposure; format: in vivo, American cockroach; settings: tested about 48 hours after application
Experimental: A solution of 5% thyme crystals (TC) is prepared in acetone and about 2 ml of the solution is applied to the bottom of a glass jar. About 2 ml of six compositions (R1-R6), set forth in Table 19-A, are each applied to the bottom of a separate jar. Thyme Crystals (5%, by weight) are combined with the six compositions (R1-R6) to produce six formulations. About 2 ml of each formulation is applied to a separate jar.
[…] Mortality is recorded about 24 hours after exposure. All jars are kept under room temperature and reused at subsequent time points to evaluate residual activity. […] Mortality is recorded about 24 hours after each exposure.

American cockroaches [4] = assay: Residual activity of stabilized compositions, separate jar per time period; format: in vivo, American cockroach; settings: tested about 48 hours after application; separate jar per time point
Experimental: In studies where treatment jars are reused at various time intervals, as described in Example 19, the materials in the jars are lost after each exposure due to contact with and transfer to the insect body, rather than via loss due to volatility of the material. As such, additional studies are conducted wherein a separate jar is prepared for each time period.
A solution of 5% thyme crystal (TC) is prepared in acetone and about 2 ml of the solution is applied to the bottom of five separate glass jars, one for each time point at which mortality is assessed. About 2 ml of six compositions (R1-R6), set forth above in Table 19-A, are each applied to the bottom of five separate jars. Thyme Crystals (5%, by weight) are combined with the six compositions (R1-R6) to produce six formulations. About 2 ml of each formulation is applied to five separate jars.
[…] Mortality is recorded about 24 hours after exposure. […] Mortality is recorded about 24 hours after each exposure.

## C=C(C)[C@H]1CC=C(C)CC1 [D-Limonene]
Male German Cockroach; component at 83%, diluted with acetone
  Percent of Tested Insects > 1 hr Time to Death: 25%
Male German Cockroach; component of Blend 31 diluted with acetone, concentration not given
  Percent of Tested Insects > 1 hr Time to Death: 22.5%

## CCCCCCCCCCCCCC(=O)OC(C)C [Isopropyl myristate, propan-2-yl tetradecanoate]
Male German Cockroach; component at 40%, diluted with acetone
  Percent of Tested Insects > 1 hr Time to Death: 100%

## CN/C(=N\[N+](=O)[O-])NCc1cnc(Cl)s1 [clothianidin]
[1]
  Ca2+ release, single agent alone: increase in Ca^2+ release

## CC1(C)[C@H](C(=O)O[C@H](C#N)c2cccc(Oc3ccccc3)c2)[C@@H]1C=C(Br)Br [deltamethrin]
American cockroaches [2]; time to 100% kill in treated jar
  100% Kill: 12 min
American cockroaches [2]; time to knockdown in treated jar
  KD: 140 s
German Cockroach
  Bioactivity 100% Kill: 15 min
  Bioactivity KD: 120 s

## O=[N+]([O-])NC1=NCCN1Cc1ccc(Cl)nc1 [imidacloprid]
Drosophila S2 cells; 100 PPM
  cAMP: 9.1 nM
Drosophila S2 cells; 333 PPM
  cAMP: 9.4 nM
Drosophila S2 cells; 500 PPM
  cAMP: 8.8 nM

## Cc1ccc(C(C)C)c(O)c1 [thyme crystal]
American cockroaches [3]
  residual activity: does not have residual activity
American cockroaches [4]
  residual activity: does not have residual activity
